Read-outs that look alike come from different tables or passages of the source.
How the values were obtained:
α-L-iduronidase W402X = assay: α-L-iduronidase-W402X assay (restored enzyme activity in cell lysates, 4-MU iduronide substrate); format: cell-based, human; settings: 48 h treatment; for W402X Amax [%]: paromomycin 14 mM as reference control; for AC50: Homo sapiens
Protocol: (§1) Activity of compounds of the present invention was examined using a functional readout for two clinically common stop codon (TAG) mutants (Q70X, W402X) of the lysosomal enzyme α-L-iduronidase. Lack of α-L-iduronidase expression in such stop codon patients leads to the lysosomal storage disorder Mucopolysaccharidosis I (MPSI) also called Hurler syndrome.
(§2) Reporter constructs analogous to constructs above were expressed. In the assay, 2500 cells/well were treated for 48 h with compound, washed with PBS and lysed (0.4 M Sodiumformate, 0.1% NaN3, 0.9% NaCl, 0.2% Triton, pH 3.5). Restored α-L-iduronidase activity in cell lysates was measured with the fluoresecent 4-MU iduronide substrate (4 Methylumbelliferyl α-L-iduronide) after 45 min incubation. Again, paromomycin was used as reference control (14 mM).

α-L-iduronidase Q70X = assay: α-L-iduronidase-Q70X assay (restored enzyme activity in cell lysates, 4-MU iduronide substrate); format: cell-based, human; settings: 48 h treatment; for Q70X Amax [%]: paromomycin 14 mM as reference control; for AC50: Homo sapiens
Protocol: as §1, §2

CFTR-Y122X = CFTR-Y122X assay (dual reporter isogenic Hek293 cell lines, Renilla luminescence readthrough); format: cell-based; settings: Homo sapiens, HEK293; for Emax at 25 µM: measured at 25 μM compound concentration (footnote a)
In short: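 Stable isogenic HEK dual-reporter line (eGFP–CFTR Y122X TGA PTC–myc–Renilla); 2000 cells/well, 24 h, then compound (10 μM; tested up to 100 μM) 24 h at 37 °C. Renilla luminescence normalised to neutral (0%) and 14 mM paromomycin (100%); wildtype construct counterscreen.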

[1] = system: human coagulation factor F9 containing the R29X (TAG) mutation; assay: F9-R29X assay (full length F9 expression in isogenic HekR4 cells, imaging / F9 ELISA); format: cell-based; settings: nonsense mutation suppression; for AC50: Homo sapiens
Protocol: Activity of compounds of the present invention was examined using reporter constructs of full length human coagulation factor F9 containing the R29X (TAG) mutation known from hemophilia B patients (“F9-R29X assay”). Full length F9 cDNA was stably expressed in the above isogenic HekR4 cell background. Stop codon readthrough and full length F9 expression was determined with a miniaturized confocal high throughput imaging assay. In paraformaldehyde fixed and permeabilized cells (10 uM compound; 24 h incubation) F9 expression was identified with a commercial F9 antibody raised against the F9 C-terminus. […] F9 staining intensity (Alexa-Fluor 488) and Draq5 nuclear staining served as readout for data calculation. Percent activity was measured in comparison to high (active control) and low controls (DMSO solvent).

[2] = nonsense mutation suppression, 100% = 14 mM paromomycin, 24 h incubation, tested up to 100 μM, read-out: Amax [%]
[3] = nonsense mutation suppression, 24 h incubation
[4] = at the above dose ranges (up to 100 μM), read-out: suppression, % of paromomycin reference activity
[5] = read-out: Amax [%]: % nonsense mutation suppression relative to paromomycin reference activity

Structure (SMILES)	Emax (CFTR-Y122X; [2]) [%]	AC50 (CFTR-Y122X; [3]) [µM]	other results
Cn1c2ccccc2c(=O)c2c(=O)n(C3CCCCC3)c(-c3cccs3)nc21 [Example 2.17, 3-cyclohexyl-10-methyl-2-(thiophen-2-yl)pyrimido[4,5-b]quinoline-4,5(3H,10H)-dione]	293	5.8	W402X Amax [%] (α-L-iduronidase W402X): 211%; AC50 (α-L-iduronidase W402X): 2.9 µM; Q70X Amax [%] (α-L-iduronidase Q70X): 265%; AC50 (α-L-iduronidase Q70X): 2.1 µM; AC50 [1]: 5.4 µM; Amax [%] [1]: 157%
Cn1c2ccccc2c(=O)c2c(=O)n(C3CCCCC3)c(-c3ccco3)nc21 [Example 2.20, 3-cyclohexyl-2-(furan-2-yl)-10-methylpyrimido[4,5-b]quinoline-4,5(3H,10H)-dione]	201	2.3	W402X Amax [%] (α-L-iduronidase W402X): 189%; AC50 (α-L-iduronidase W402X): 0.9 µM; Q70X Amax [%] (α-L-iduronidase Q70X): 386%; AC50 (α-L-iduronidase Q70X): 1 µM; AC50 [1]: 5.5 µM; Amax [%] [1]: 158%
Cn1c2ccccc2c(=O)c2c(=O)n(C3CCCCCC3)c(-c3ccc([N+](=O)[O-])cc3)nc21 [3-cycloheptyl-10-methyl-2-(4-nitrophenyl)pyrimido[4,5-b]quinoline-4,5(3H,10H)-dione]	–	–	Emax (CFTR-Y122X; [4]): < 5%
CCCCCc1nc2c(c(=O)c3ccccc3n2C)c(=O)n1C1CCCC1 [Example 2.18, 3-cyclopentyl-10-methyl-2-pentylpyrimido[4,5-b]quinoline-4,5(3H,10H)-dione]	222	9.9	–
Cn1c2ccccc2c(=O)c2c(=O)n(C3CCCCCC3)c(-c3cccc(Br)c3)nc21 [Example 2.50, 2-(3-bromophenyl)-3-cycloheptyl-10-methylpyrimido[4,5-b]quinoline-4,5(3H,10H)-dione]	6	4.4	–
Cn1c2ccccc2c(=O)c2c(=O)n(C3CCCCC3)c(-c3ccccc3F)nc21 [Example 2.41, 3-cyclohexyl-2-(2-fluorophenyl)-10-methylpyrimido[4,5-b]quinoline-4,5(3H,10H)-dione]	18	4.9	–
COCCCCc1nc2c(c(=O)c3ccccc3n2C)c(=O)n1-c1ccccc1 [Example 1.14, 2-(4-methoxybutyl)-10-methyl-3-phenylpyrimido[4,5-b]quinoline-4,5(3H,10H)-dione]	18	–	–
CC(C)c1nc2c(c(=O)c3cc(C#N)ccc3n2C)c(=O)n1C1CCCC1 [Example 2.14, 3-cyclopentyl-2-isopropyl-10-methyl-4,5-dioxo-3,4,5,10-tetrahydropyrimido[4,5-b]quinoline-7-carbonitrile]	9	6.6	–
Cn1c2ccccc2c(=O)c2c(=O)n(C3CCCCCC3)c(-c3cccc([N+](=O)[O-])c3)nc21 [Example 2.46, 3-cycloheptyl-10-methyl-2-(3-nitrophenyl)pyrimido[4,5-b]quinoline-4,5(3H,10H)-dione]	12	4.2	–
Cn1c2ccccc2c(=O)c2c(=O)n(C3CCCCCC3)c(-c3ccc(Cl)cc3)nc21 [2-(4-chlorophenyl)-3-cycloheptyl-10-methylpyrimido[4,5-b]quinoline-4,5(3H,10H)-dione]	–	–	Emax (CFTR-Y122X; [4]): < 5%
CC(C)c1nc2c(c(=O)c3ccccc3n2CCN)c(=O)n1-c1ccccc1 [Example 1.41, 10-(2-aminoethyl)-2-isopropyl-3-phenylpyrimido[4,5-b]quinoline-4,5(3H,10H)-dione]	198	19.5	–
CC(C)c1nc2c(c(=O)c3cc(Cl)ccc3n2C)c(=O)n1-c1ccccc1 [Example 1.24, 7-chloro-2-isopropyl-10-methyl-3-phenylpyrimido[4,5-b]quinoline-4,5(3H,10H)-dione]	140	11.5	–
CC(C)c1nc2c(c(=O)c3ccccc3n2C)c(=O)n1-c1ccccc1F [Example 1.15, 3-(2-fluorophenyl)-2-isopropyl-10-methylpyrimido[4,5-b]quinoline-4,5(3H,10H)-dione]	169	7.8	–
Cn1c2ccccc2c(=O)c2c(=O)n(-c3ccccc3)c(C3CCCCC3)nc21 [Example 1.32, 2-cyclohexyl-10-methyl-3-phenylpyrimido[4,5-b]quinoline-4,5(3H,10H)-dione]	38	–	–
CCCc1nc2c(c(=O)c3ccccc3n2C)c(=O)n1-c1ccccc1 [Example 1.30, 10-methyl-3-phenyl-2-propylpyrimido[4,5-b]quinoline-4,5(3H,10H)-dione]	262	6.5	–
CCc1nc2c(c(=O)c3ccccc3n2C)c(=O)n1-c1ccccc1 [Example 1.31, 2-ethyl-10-methyl-3-phenylpyrimido[4,5-b]quinoline-4,5(3H,10H)-dione]	177	10.6	–

Structure (SMILES)	Emax (CFTR-Y122X; [2]) [%]	AC50 (CFTR-Y122X; [3]) [µM]	other results
CC(C)c1nc2c(c(=O)c3ccccc3n2C)c(=O)n1C1CCOCC1 [Example 2.7, 2-isopropyl-10-methyl-3-(tetrahydro-2H-pyran-4-yl)pyrimido[4,5-b]quinoline-4,5(3H,10H)-dione]	–	–	Emax at 25 µM (CFTR-Y122X; [5]): 151%
Cn1c2ccccc2c(=O)c2c(=O)n(C3CCCCC3)c(C3CCCCC3)nc21 [2,3-dicyclohexyl-10-methylpyrimido[4,5-b]quinoline-4,5(3H,10H)-dione]	–	–	Emax (CFTR-Y122X; [4]): < 5%
COCCCc1nc2c(c(=O)c3ccccc3n2C)c(=O)n1-c1ccccc1 [Example 1.13, 2-(3-methoxypropyl)-10-methyl-3-phenylpyrimido[4,5-b]quinoline-4,5(3H,10H)-dione]	13	–	–
CC(C)c1nc2[nH]c3ccccc3c(=O)c2c(=O)n1-c1ccccc1 [Example 1.3, 2-isopropyl-3-phenylpyrimido[4,5-b]quinoline-4,5(3H,10H)-dione]	279	6.1	–
COc1ccccc1-n1c(C(C)C)nc2c(c(=O)c3ccccc3n2C)c1=O [Example 1.19, 2-isopropyl-3-(2-methoxyphenyl)-10-methylpyrimido[4,5-b]quinoline-4,5(3H,10H)-dione]	–	–	Emax at 12.5 µM (CFTR-Y122X; measured at 12.5 μM compound concentration (footnote b), read-out: Amax [%]: % nonsense mutation suppression relative to paromomycin reference activity): 16%
Cn1c2ccccc2c(=O)c2c(=O)n(C3CCCCC3)c(-c3ccc(Cl)cc3)nc21 [Example 2.44, 2-(4-chlorophenyl)-3-cyclohexyl-10-methylpyrimido[4,5-b]quinoline-4,5(3H,10H)-dione]	16	–	–
C#Cc1ccc2c(c1)c(=O)c1c(=O)n(C3CCCC3)c(C(C)C)nc1n2C [Example 2.13, 3-cyclopentyl-7-ethynyl-2-isopropyl-10-methylpyrimido[4,5-b]quinoline-4,5(3H,10H)-dione]	11	–	–
Cc1cc(C)cc(-n2c(C3CCCCC3)nc3c(c(=O)c4ccccc4n3C)c2=O)c1 [2-cyclohexyl-3-(3,5-dimethylphenyl)-10-methylpyrimido[4,5-b]quinoline-4,5(3H,10H)-dione]	–	–	Emax (CFTR-Y122X; [4]): < 5%
CCCCCCCc1nc2c(c(=O)c3ccccc3n2C)c(=O)n1-c1ccccc1 [Example 1.48, 2-heptyl-10-methyl-3-phenylpyrimido[4,5-b]quinoline-4,5(3H,10H)-dione]	235	11.7	–
Cn1c2ccccc2c(=O)c2c(=O)n(C3CCCCCC3)c(-c3ccccc3F)nc21 [3-cycloheptyl-2-(2-fluorophenyl)-10-methylpyrimido[4,5-b]quinoline-4,5(3H,10H)-dione]	–	–	Emax (CFTR-Y122X; [4]): < 5%
CC(C)c1nc2c(c(=O)c3ccccc3n2C)c(=O)n1N1CCCCC1 [Example 2.8, 2-isopropyl-10-methyl-3-(piperidin-1-yl)pyrimido[4,5-b]quinoline-4,5(3H,10H)-dione]	264	10.6	–
CC(C)c1nc2c(c(=O)c3ccccc3n2C)c(=O)n1C1CCCOC1 (stereo not shown) [Example 1.45, 2-isopropyl-10-methyl-3-(tetrahydro-2H-pyran-3-yl)pyrimido[4,5-b]quinoline-4,5(3H,10H)-dione]	389	4.7	–
Cc1ccccc1-n1c(C(C)C)nc2c(c(=O)c3ccccc3n2C)c1=O [Example 1.18, 2-isopropyl-10-methyl-3-(o-tolyl)pyrimido[4,5-b]quinoline-4,5(3H,10H)-dione]	248	6.9	–
O=c1c2ccccc2[nH]c2nc(C3CCC3)n(-c3ccccc3)c(=O)c12 [Example 1.5, 2-cyclobutyl-3-phenylpyrimido[4,5-b]quinoline-4,5(3H,10H)-dione]	170	1.1	–
Cn1c2ccccc2c(=O)c2c(=O)n(C3CCCC3)c(C(C)(C)C)nc21 [Example 2.6, 2-(tert-butyl)-3-cyclopentyl-10-methylpyrimido[4,5-b]quinoline-4,5(3H,10H)-dione]	–	–	Emax at 25 µM (CFTR-Y122X; [5]): 127%

Source: US9649314B2, “Pyrimido[4,5-b]quinoline-4,5(3H,10H)-diones” (NOVARTIS AG, priority 2012, dated 2017)
